Assay results as given in patent publication US20200308620A1, “PREDICTING TUMOR SPECIFICITY OF TARGETED THERAPEUTICS USING ATOMIC FORCE MICROSCOPY (AFM)” (Children's Medical Center Corporation, priority 2017, published 2020).
In brackets after ≈: the same amount, converted by molar mass.

Assays:
[1] = system: patient-derived NHL B cells; details: cited from earlier work
normal red blood cells = details: Li et al.; cited from earlier work
MDA-MB-231 cells = assay: In vitro cytotoxicity (cell viability) assay; format: cell-based, human; details: MDA-MB-231, Dox concentration, treated 4 hours, grown 48 hours
Experimental: In vitro cytotoxicity of ICAM-Dox-LPs on TNBC cells was evaluated using a cell viability assay. Five thousand cells (MDA-MB-231, MDA-MB-436, and MDA-MB-157) were seeded in each well of a 96 well plate and incubated for 24 hours. Cells were treated with (1) ICAM-LP without Dox; (2) Free Dox; (3) non-specific IgG-Dox-LPs and (4) ICAM-Dox-LPs for 4 hours. Cells were rinsed twice with PBS and grown for 48 hours. Cell viability was determined by a Dojindo cell counting kit using the manufacturer's protocol (Rockville, Md.).

[2] = system: ICAM1 expression on MDA-MB-231 cell surface; assay: Flow cytometric analysis of ICAM1 surface expression pre- and post-MCD treatment; format: cell-based, human; details: MDA-MB-231, pre- and post-MCD treatment
Excerpt: In addition to the overexpression level, the organization of antigens on the cell membrane is another key factor driving differences in antibody-antigen binding behavior^11. AFM-detected adhesive events were also used to spatially map the binding forces on MDA-MB-231 (FIG. 2E) and MCF10A (FIG. 2F) cell surface. […] These “hot-spots” are predicted to be the primary binding sites for ICAM1 antibody-directed nanomedicine due to the high binding forces. ICAM1 molecules may be enriched in membrane lipid rafts of MDA-MB-231 cells to facilitate functional signaling^22. […] In order to determine whether ICAM1 adhesion forces are dependent on the organization of ICAM1 molecules in lipid rafts on the cell membrane, both MDA-MB-231 and MCF10A cells were treated with methyl-beta-cyclodextrin (MCD), a cholesterol-depleting drug that disrupts lipid rafts, and then the average binding force was re-measured. […]
10^6 cells were collected and rinsed twice through suspension-spin cycles. […] Cells were rinsed with 1% BSA in PBS three times, resuspended in PBS, and evaluated by a BD FACSCalibur flow cytometer (BD Biosciences). Quantification of cell surface antigen was determined with reference to Quantum Simply Cellular microbeads, using the protocol provided by the manufacturer.

Rituximab: FDA-approved CD20 antibody for Non-Hodgkin's Lymphoma treatment
binding force difference (NHL B cells minus normal red blood cells) ([1]; NHL B cells minus normal red blood cells): 33 pN | binding force ([1]; patient-derived NHL B cells, Li et al.): 54±34 pN | binding force (normal red blood cells): 21±19 pN

COc1cccc2c1C(=O)c1c(O)c3c(c(O)c1C2=O)C[C@@](O)(C(=O)CO)C[C@@H]3O[C@H]1C[C@H](N)[C@H](O)[C@H](C)O1 [free Dox, doxorubicin]
IC50 (cytotoxicity) (MDA-MB-231 cells): 7.4 mg/L (≈ 13.6 µM)

methyl-beta-cyclodextrin [MCD]
effect on average ICAM1 expression on cell surface [2]: did not affect
